Measurements published in US7282486B2, “Crystal forms of azithromycin” (Pfizer Inc, priority 2001, dated 2007).
Values belong to the compound of their own block, whether it stands above or below them.

Tests used:
[1] = Heating of form A: variable temperature powder X-ray diffraction (VT-PXRD) and TGA; assay type: physicochemical
[2] = Dehydration/desolvation temperatures determined by DSC; assay type: physicochemical; conditions: DSC analysis at 5° C./min from 30-300° C.
Protocol: Dehydration/desolvation temperatures were determined by DSC with a heating rate of 5° C./min.

- stability of form when cooled to ambient temperature ([1]; cooled to ambient temperature after heating form A to about 90° C.): rapidly reverts to form A
SMILES: CCC1OC(=O)C(C)C(O[C@H]2C[C@@](C)(OC)[C@@H](O)C(C)O2)C(C)[C@@H](OC2OC(C)CC(N(C)C)[C@H]2O)C(C)(O)C[C@@H](C)CN(C)[C@H](C)[C@@H](O)[C@]1(C)O (stereo in doubt) [Form L]

- weight loss by TGA ([1]; at 90° C.): about 2.5 weight %
- temperature of solid-state conversion of form A to form L ([1]; heating, VT-PXRD): about 90 °C
SMILES: CC[C@H]1OC(=O)[C@H](C)[C@@H](O[C@H]2C[C@@](C)(OC)[C@@H](O)[C@H](C)O2)[C@H](C)[C@@H](O[C@@H]2O[C@H](C)C[C@H](N(C)C)[C@H]2O)[C@](C)(O)C[C@@H](C)CN(C)[C@H](C)[C@@H](O)[C@]1(C)O [Form A, azithromycin dihydrate]

- broad endotherm (decomposition) [2]: 200-280 °C
SMILES: CCC1OC(=O)C(C)C(O[C@H]2C[C@@](C)(OC)[C@@H](O)C(C)O2)C(C)[C@@H](OC2OC(C)CC(N(C)C)[C@H]2O)[C@@](C)(O)C[C@@H](C)CN(C)[C@H](C)[C@@H](O)[C@]1(C)O (stereo partly shown) [Form D, azithromycin monohydrate monocyclohexane solvate]
